# According to patent US20140315972A1, “RS)-2-(2-oxo-4-phenylpyrrolidin-1-yl)acetamide compound having modulatory activity with a commensurate effect, pharmaceutical substance (variants) and its application, composition (variants) thereof” (priority 2011, published 2014):
# Marks after values point to notes of the source that are not given here.
# What was measured:
# α-INF = test: Cytokine profile in supernatants of peripheral mononuclear cultures (ELISA), asthenoneurotic patients; assay type: in vivo, human; conditions: for α-INF: asthenoneurotic disorders, humans
# Description: (§1) The study of immunocompetent activity of Phenotropil included patients with neurasthenia and organic asthenic disorder (20-47 years) of both sexes (men 37%, women 63%). Control group included practically healthy people (20 people). The study groups were similar in age and sex ratio. Phenotropil was administered at a dose of 100 mg/day, one time in the morning for 30 days. Study of the immune and mental status (level of IL-1, IL-2, IL-3, IL-6, α-TNF, α-INF in supernatants of cultures of peripheral mononuclears from whole blood) was carried out before treatment and at days 7, 14, 21 after the therapy course (30 days) and after 3 months of therapy. Blood sampling for analysis was carried out at the same time of day in the control group and in the group of patients. Peripheral mononuclear cells were isolated from the whole blood; interleukin level was determined by ELISA kits (“Immunotech”, France).
# IL-6 = test: as above; assay type: in vivo, human; conditions: for IL-6: asthenoneurotic disorders, humans
# Description: as §1
# mice = test: Maximum life span (MLS) of mice; assay type: in vivo; conditions: for The maximum life span (number of days in %): mice, change vs untreated control = 100
# Description: The maximum life span (MLS) of mice according to our long-term statistical observations is 2.7-3, 2 years, i.e. in average 2.95 years or 1077 days. For this study we selected mice (10 individuals per group), males with dominant behavior in mixed groups, that safely survived to 985 days without signs of pronounced senility and with satisfactory orientation-exploratory behavior, determined by the “open field test” method. Phenotropil in doses of 25, 50 and 100 mg/kg was administered orally with 5.0% glucose solution. Glucose solution was used solely to improve the solubility of the drug. One control group received the glucose solution and the second one—distilled water. The third control group was not treated.
# rats = test: Hemorrhagic stroke (intracerebral post-traumatic hematoma), McGrow scale; assay type: in vivo
# Description: The stroke condition was simulated in male rats (270-320 g) at a local cerebral hemorrhage, as a hemorrhagic stroke (intracerebral post-traumatic hematoma) by the method of A. N. Makarenko et al (1990) and at cerebral ischemia with distal occlusion of the middle cerebral artery (Chen S. T., Hsu C. Y., Hogan E. L., Maricq H., Balentine J. D. A model of focal ischemic stroke in the rat reproducible extensive cortical infarction//Stroke.—1989, V. 17, No 4, p. 738-743) as an ischemic stroke. Phenotropil was injected intraperitoneally at hemorrhagic stroke at 100 mg/kg immediately after surgery, and one hour before and two hours after the surgery (at doses of 100, 200 and 300 mg/kg) at ischemic stroke. Control animals were treated adequately with distilled water.
# male subjects = test: Anti-seasick (anti-kinetosis) activity, visual-vestibular effects; assay type: in vivo, human
# Description: Investigations of the anti-seasick (anti-kinetosis) activity of agents with creation of visual-vestibular effects modeling motion sickness were performed on male subjects (23-35 years). Test with continuous exposure to the Coriolis acceleration was performed by rotating vestibulometric chair with angular velocity 180°/s. The eyes of the subject were open, while the optokinetic drum rotated in one direction with the chair with a speed of 90°/s. The time of visual-vestibular effect, vestibulo-vegetative reactions, optokinetic nystagmus before and after kinesia was determined when the drum rotated alternately for two minutes in the R- and S-directions at a speed of 90° s, with a break for 1 minute between rotations, as well as the severity of vestibular effects was measured and the Km was calculated. The studies were conducted 60 minutes after administration of Phenotropil in doses of 25, 50, 100 and 300 mg. Baseline state values and placebo values served as control. Alternate approaches for each participant were performed a week after each previous test. The modulation factor under normal conditions without exposure was 0.97.
# [1] = tested on: acetylcholine nACh receptors (cortex); test: Receptor binding ex vivo on rat brain membrane preparations
# Description: (§2) Studying the mechanisms of action of the preventive and curative effect of Phenotropil (100 mg/kg) with single and subchronic administration (for 7 days) in terms of receptor binding to dopamine (D1, D2, D3 in the striatum), serotonin (5-HT2—frontal cortex) glutamate (NMDA in the hippocampus), the GABAA benzodiazepine (BDZ—cortex) and acetylcholine (nACh—cortex) receptors was performed on membrane preparations isolated from various competent rat brain structures. The methods are well known and described. Baseline studies in normal state and during the anticholinergic scopolamine induced CRPA amnesia served as the comparison groups (Table 7.4 and 7.5).
# [2] = tested on: serotonin 5-HT2 receptors (frontal cortex); test: as above
# Description: as §2
# [3] = tested on: glutamate NMDA receptors (hippocampus); test: as above
# Description: as §2
# [4] = tested on: GABAA benzodiazepine (BDZ) receptors (cortex); test: as above; conditions: 100 mg/kg single dose during scopolamine amnesia
# Description: as §2
# [5] = After treatment (one month course)
# [6] = patients, 100 mg/day 30 days, after course
# [7] = patients, three months after the therapy
# [8] = rats, hemorrhagic stroke, 100 mg/kg i.p., 1 day after surgery
# [9] = male subjects, 25, 50, 100, 300 mg
# [10] = 100 mg/kg after scopolamine-induced CRPA amnesia
# [11] = nACh cortex, 100 mg/kg single dose during scopolamine amnesia
# [12] = 5-HT2 frontal cortex, 100 mg/kg single dose during scopolamine amnesia
# [13] = NMDA hippocampus, 100 mg/kg single dose during scopolamine amnesia
compound,measurement,setting,value
"NC(=O)CN1CC(c2ccccc2)CC1=O (racemic) [Compound 1, (RS)-2-(2-oxo-4-phenylpyrrolidine-1-yl)acetamide]",α-INF,α-INF; [5],4.18 ± 0.06
same,α-INF,α-INF; At 3 months after treatment,4.11 ± 0.05
same,α-INF level vs baseline values,α-INF; [6],−10.3%
same,α-INF level vs baseline,α-INF; [7],−11.8%
same,IL-6,IL-6; [5],3.55 ± 0.15
same,IL-6,IL-6; At 3 months after treatment,3.80 ± 0.03
same,IL-6 level vs baseline values,IL-6; [6],+11.3%
same,IL-6 level vs baseline,IL-6; [7],+19.0%
same,increase of maximum life span,mice; 25 mg/kg,23.3%
same,increase of maximum life span,mice; 100 mg/kg,24.0%
same,"increase of life span, average of all experimental groups","mice; male mice aged 985 days, 25, 50, 100 mg/kg orally",22.0%
same,The maximum life span (number of days in %),mice; 25 mg/kg + 5.0% glucose solution,+20.1 * %
same,The maximum life span (number of days in %),mice; 50 mg/kg + 5.0% glucose solution,+15.0 * %
same,The maximum life span (number of days in %),mice; 100 mg + 5.0% glucose solution,+20.8 * %
same,"prevention of lethal outcomes, % of cases","rats; hemorrhagic and ischemic stroke in rats, follow up 14 days",100%
same,% of animals with circling movements,rats; [8],0* %
same,"% of animals with lethargy, slowness of movement",rats; [8],30%
same,% of animals with paralysis of 1-4 limbs,rats; [8],0* %
same,% of animals with paresis of 1-4 limbs,rats; [8],20* %
same,% of animals with weakness of limbs,rats; [8],30* %
same,Mortality,rats; [8],0* %
same,"NEE, negative effects of exposure","male subjects; humans, 25-300 mg",22.5 ± 7.5 min
same,"VVE, tolerability of the visual-vestibular effects","male subjects; humans, 25-300 mg",7.70 ± 0.6 min
same,"VVR, severity of the vestibulo-vegetative reactions","male subjects; humans, 25-300 mg",2.3 ± 0.9 points
same,"improvement of visual-vestibular tolerability vs placebo, average",male subjects; [9],+80%
same,"reduction in severity of vestibulo-vegetative reactions vs placebo, average",male subjects; [9],68%
same,duration of negative consequences condition,"male subjects; male subjects, placebo 4-6 hours",15 to 30 min
same,decrease in density of nACh receptors vs scopolamine amnesia,[1]; [10],46%
same,Bmax change vs saline CRPA control,[1]; [11],+6%
same,Bmax change vs scopolamine amnesia group,[1]; [11],−46%
same,Kd change vs saline CRPA control,[1]; [11],+39.5%
same,Kd change vs scopolamine amnesia group,[1]; [11],+14.4%
same,"Bmax, percentage relative to control","[2]; 5-HT2, subchronic 100 mg/kg/day, no pathology",−18%*
same,Bmax change vs saline CRPA control,[2]; [12],+31%
same,Kd change vs saline CRPA control,[2]; [12],+19.4%
same,Kd change vs scopolamine amnesia group,[2]; [12],+3.0%
same,decrease of density (Bmax) of 5-HT2 receptors vs control,"[2]; subchronic 100 mg/kg, no pathology",18%
same,decrease in density of NMDA receptors vs scopolamine amnesia,[3]; [10],12%
same,Bmax change vs saline CRPA control,[3]; [13],+69%
same,Bmax change vs scopolamine amnesia group,[3]; [13],−12%
same,Kd change vs saline CRPA control,[3]; [13],+18.4%
same,Kd change vs scopolamine amnesia group,[3]; [13],+9.0%
same,Bmax change vs saline CRPA control,[4],+4%
same,Kd change vs saline CRPA control,[4],−3.8%
same,Kd change vs scopolamine amnesia group,[4],+9.3%
